In paper doi:10.1101/356956v1 (biorxiv, 2018):

target: T1, recombinant human caspase-3 (Homo sapiens, UniProt P42574); assay: Caspase-Glo […] luminescence assay, dose-response; type: biochemical
T1 sequence (P42574 29-175): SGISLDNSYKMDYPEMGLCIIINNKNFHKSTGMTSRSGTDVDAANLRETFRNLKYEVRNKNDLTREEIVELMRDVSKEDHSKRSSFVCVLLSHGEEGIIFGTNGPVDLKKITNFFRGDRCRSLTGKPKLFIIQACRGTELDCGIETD
T1 sequence (P42574 176-277): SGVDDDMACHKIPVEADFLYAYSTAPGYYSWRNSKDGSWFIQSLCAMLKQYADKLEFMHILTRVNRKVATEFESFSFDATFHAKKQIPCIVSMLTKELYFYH

Row | SMILES | IC50
1 | CC(C(=O)O)c1ccc2c(c1)Cc1cccnc1O2 (stereo not drawn) [Pranoprofen] | 54.3 ± 0.6 µM
2 | CC(C(=O)O)c1cccc(Oc2ccccc2)c1 (stereo not drawn) [Fenoprofen] | 47 ± 6.07 µM
3 | O=C(O)c1cc(-c2ccc(F)cc2F)ccc1O [Diflunisal] | 10.4 ± 0.5 µM
